Experimental findings from article PMC12005787, “Synthetic Lethality of SHP2 and XIAP Suppresses Proliferation and Metastasis in KRAS‐mutant Nonsmall Cell Lung Cancer” (Advanced Science, 2025) are described below.

One assay has as its system NCI‐H2122 cells. In words: Cell cycle assay. The class given is cell-based, human. The conditions noted are these: embelin 15 µM or SHP099 10 µM for 72 h. The method, then: NCI-H2122 cells treated with given disposal were washed with pre-cooled PBS, fixed
with ice pre-cooled 70% ethanol at 4℃ for 2 h. And then PI staining solution (containing
RNaseA) was incubated in dark at 37℃ for 30 min. Red fluorescence and light scattering
were detected by flow cytometry at 488 nm. Cell cycle results were analyzed and visualized
using ModFit LT and FlowJo software. […]
(1 picture or pasted object on this page, not shown here)

The test system of another assay is A549 and NCI‐H2122 cells. In words: Cell invasion assay. Type of assay: cell-based, human. The conditions noted are these: embelin 1 and 2.5 µM; 24 h. Here is the method:
NCI-H2122 and A549 cells were pre-starved in serum-free medium for 24 h and resuspended in serum-free medium containing 5 mg mL-1 BSA. The cell suspension was added to Transwell chambers at a density of 5×105 mL-1, and RPMI-1640 or Ham F-12K medium containing 10% FBS was added to the bottom of the Transwell chambers.
Subsequently, drugs were added to the chambers and incubated at 37 °C for 48 h and cells were then fixed with 4% neutral formaldehyde for 40 min and stained with 0.1% crystal violet for 60 min. The chamber was washed with triple-distilled water, and images were collected using an inverted microscope. […]
Depending on the molecular weight of the proteins, different concentrations of sodium dodecyl-sulfate polyacrylamide gel electrophoresis (SDS-PAGE) separator gels were prepared for protein electrophoresis. Equal amounts of proteins were sampled and subjected to SDS-PAGE gel electrophoresis; at the end of electrophoresis, the proteins were transferred to nitrocellulose (NC) membranes. The NC membrane was blocked with 5% skim milk and covered with a specific primary antibody overnight at 4 °C, in which the primary antibody was diluted at a ratio of 1:500–1:5000. The NC membrane was […]

The test system of assay [1] is SHP2 phosphorylation in HeLa cells. In words: SHP2 phosphorylation in EGF-stimulated HeLa cells (immunoblotting). Type of assay: cell-based. Particulars: for effect on the level of SHP2 phosphorylation: 20 µM for 2 h before EGF (10 ng mL^−1); for effect on EGF-induced phosphorylation of SHP2 (Y542 and Y580) and ERK: pretreatment 2 h, SHP099 20 µM, embelin different concentrations, EGF 10 ng mL^−1 2 h. The source says: Figure 1 Embelin inhibits KRAS‐mutant tumor development. A) Correlation detection between mRNA expression of PTPN11 and KRAS in patients with LUAD (n = 706) using IlluminaHiSeq analysis with data derived from TCGA database. B) Correlation and number at risk of SHP2 expression with the overall survival probability of KRAS mutant lung cancer patients (n = 92) in the TCGA database. C) Protein expression and phosphorylation levels of SHP2 in RAS‐WT, NRAS, HRAS, and KRAS‐mutant cells. D) Effect of 3471 bioactive compounds at 10 µM against SHP2, with Na3VO4 serving as a control. Z’ factor values for 69 plates screened, Z’ = 0.81, S/N = 40.8. E) Binding energy between candidate drugs and SHP2 full‐length domain, catalytic region, and ΔSHP2 domain. F) HeLa cells were pretreated with DMSO, SHP099, or various compounds at 20 µM for 2 h before stimulation with EGF (10 ng mL^−1) for an additional 2 h. Cell lysates were subjected to immunoblotting with SHP2, p‐SHP2, and GAPDH antibodies. Data are from three independent experiments are presented. G) Spearman's correlation coefficient between drug‐related targets and KRAS mRNA in different types of tumors through the TCGA database. H) BCL2, TPO, RAF1, MCL1, MPL, and XIAP mRNA expression levels in LUAD tumors and adjacent tissues through the TCGA database. I) XIAP protein expression in RAS‐WT, NRAS‐mutant, HRAS‐mutant, and KRAS‐mutant cells. J) Effect of candidate drugs (10 µM) on colony formation in A549, NCI‐H2122, and NCI‐H1944 cells.
Figure 6 Embelin disrupts the SHP2 signaling complex in KRAS‐mutant NSCLC cells. A) HeLa cells were pretreated with SHP099 (20 µM) or different concentrations of embelin for 2 h and stimulated with EGF (10 ng mL^−1) for 2 h, the protein expression of RAS/MAPK signaling pathway in HeLa cells was detected. B) After treatment of embelin and SHP099 (10 µM) in NCI‐H2122 and A549 cells for 12 h, cell lysates were collected. One part was used to measure Gab1, Grb2, and SOS1 expression, and the other part underwent IP with SHP2 antibody. Then, binding of Gab1, Grb2, and SOS1 with SHP2 was detected. C) After treatment of embelin and SHP099 (10 µM) for 24 h, the expression of Gab1, p‐Gab1, Grb2, and SOS1 proteins in A549 and NCI‐H2122 cells were detected. […] Co‐localization of these proteins with SHP2 was detected using IF. […]
After given treatment, cells were lysed by ice bath with radio-immunoprecipitation assay (RIPA) buffer containing 1% phenylmethylsulphonyl fluoride (PMSF), and the supernatant was collected by centrifugation, and the protein concentration was subsequently determined using a BCA Protein Assay Kit. […]

The subject of assay [2] is MEK and ERK phosphorylation in NCI‐H2122 and A549 cells. In words: MEK and ERK phosphorylation (western blotting). The class given is cell-based, human. Particulars: 24 h. A general note: A western blot detects proteins with antibodies after separation by electrophoresis.

In the case of `CCCCCCCCCCCC1=C(O)C(=O)C=C(O)C1=O` [Embelin], the “effect on cell cycle” value in the assay with NCI‐H2122 cells was “blocked the G2/M cycle”. The “effect on invasive ability” value in the assay with A549 and NCI‐H2122 cells is recorded as “significantly inhibited the invasive ability”. Moreover, in assay [1], the “effect on the level of SHP2 phosphorylation” value is given as “significantly inhibited SHP2 phosphorylation”; the “effect on EGF-induced phosphorylation of SHP2 (Y542 and Y580) and ERK” value is “significantly inhibited these phosphorylation levels”. Further, the “effect on MEK and ERK phosphorylation” value in assay [2] was “inhibited MEK and ERK phosphorylation”.

In the case of `O=C1Nc2ccc(I)cc2/C1=C/c1cc(Br)c(O)c(Br)c1` [S2872, GW5074], the “effect on the level of SHP2 phosphorylation” value in assay [1] was “significantly inhibited SHP2 phosphorylation”.

For `CC1(N)CCN(c2cnc(-c3cccc(Cl)c3Cl)c(N)n2)CC1` [SHP099], the “effect on cell cycle” value with NCI‐H2122 cells was “had no effect”. Also, the “effect on invasive ability” value in the assay on A549 and NCI‐H2122 cells is “significantly inhibited the invasive ability”. In assay [1], the “effect on EGF-induced phosphorylation of SHP2 (Y542 and Y580) and ERK” value is recorded as “significantly inhibited these phosphorylation levels”. The “effect on MEK and ERK phosphorylation” value in assay [2] was “did not affect MEK phosphorylation in A549 cells”.
